Experimental data: patent publication US20030133972A1, “Targeted multivalent macromolecules” (priority 2000, published 2003)
“And” between values parts separate entries of the source, which are not always exact repeats. Equal entries are not always repeated. Values belong to the compound of their own block, whether it stands above or below them.

How the values were obtained:
[1] = system: collagen receptors (α2β1 integrins); assay: Cell adhesion assay on plates coated with collagen; assay type: cell-based
Description: The cell adhesion assay was also performed with plates coated with collagen. Collagen binds to collagen receptors (α2β1 integrins) but not αvβ3 integrins. […] Without being bound by theory, it is believed that the observed inhibition of cell adhesion by PV-integrin agonist is due to the PV preventing interaction of collagen and its receptor by steric hindrance, due to the large size of the PV. Thus, not only does the PV targeted to a specific receptor bind to the receptor on the cell surface, but it blocks access to adjacent receptors due to its steric bulk.

[2] = system: αvβ3 positive M21 Melanoma cells binding to vitronectin coated plates; assay: Cell adhesion inhibition assay on vitronectin coated plates; assay type: cell-based, human; conditions: 1 h incubation, PVs as equivalents of compound 10 on the surface, read-out: Cell Adhesion Assay IC50 (μM of 10 on NPs)
αvβ3 integrin = αvβ3 integrin (Homo sapiens, UniProt P05106+P06756); assay: Competitive integrin binding assay (PVs mixed with free ligand 10); conditions: read-out: concentration of free ligand 10 to achieve 50% inhibition of PV binding; against PV1 carrying the equivalent of 0.5 μM of 10 on its surface
[3] = system: MS1 mouse endothelial pancreatic islet cells; assay: In vitro cell proliferation assay (crystal violet), endothelial cells; assay type: cell-based; conditions: murine endothelial cells
Description: The effect of free doxorubicin or liposome-encapsulated doxorubicin on the cells was assayed calorimetrically by crystal violet staining method with slight modification. Mouse endothelial cells (ATCC# CRL-2279) and mouse melanoma cells (M2) were seeded in 96well flat-bottomed microtitre plates. The effect of the vesicles on cell proliferation was determined with cells near confluence (about 80%). The medium in each well was replaced with 100 ul of culture medium containing 250 ug/ml of vesicles containing doxorubicin. The mouse endothelial and melanoma cells were incubated for 1 hour at 37° C. and 5% CO2. After 1 hour incubation, the drug was removed, and compete medium that was lacking drug was added, and the cells were incubated for 48 hours at 37° C. and 5% CO2. The experiment was performed in duplicate. At the end of the incubation period, the cells were washed once with PBS and the cultures were fixed by 70% ethanol overnight. Next, the cells were stained with 100 ul of 0.1% crystal violet in 10% ethanol for 10 minutes at room temperature, and the cells were gently washed with water for 5 times. Next, 100 ul of 1% SDS was added to each well and the plates were placed on an orbital shaker for 15 minutes. After the crystal violet in cell membrane was removed with SDS, the plate was read at 590 nm. Finally, cell viability was evaluated as the mean value of optical density.

VEGFR1 = VEGFR1 (Homo sapiens, UniProt P17948); conditions: affinity of VEGFR1 for VEGF; cited from earlier work

- IC50 [2]: 64 µM and 63.9 µM
- IC50 (αvβ3 integrin): 65 µM
Compound: 4-[2-(3,4,5,6-Tetrahydropyrimidin-2-ylamino)ethyloxy]-benzoyl-2-(S)amino Ethylsulfonylamino-β-alanine [Compound 10]
- inhibition of cell adhesion to collagen coated plates [1]: neither the PV alone nor the agonist alone inhibited cell adhesion

Compound: COc1cccc2c1C(=O)c1c(O)c3c(c(O)c1C2=O)C[C@@](O)(C(=O)CO)C[C@@H]3O[C@H]1C[C@H](N)[C@H](O)[C@H](C)O1 [Doxorubicin, doxorubicin]
- effect on cell proliferation [3]: significant reductions in cell proliferation

Compound: VEGF
- Kd (VEGFR1): 1 to 20 pM
